Laboratory results: ChEMBL document CHEMBL6074678, “Selectively Antagonizing the NOD1-Mediated Inflammatory Signaling Pathway Mitigates the Gastric Inflammation Induced by Helicobacter pylori Infection” (J Med Chem, 2024)
≈ marks a conversion by molar mass, not a printed value.

Experiments:
[1] = Metabolic stability in mouse liver microsomes assessed as half life at 1.25 uM preincubated for 5 mins followed by NADPH addition measured upto 120 mins by LC-MS/MS analysis; assay type: ADME, Microsome; conditions: time < 125 min
[2] = molecular target: Nucleotide-binding oligomerization domain-containing protein 2 (Homo sapiens, UniProt Q9HC29); assay: Inhibition of human NOD2 at 1 uM relative to control
Chain of Nucleotide-binding oligomerization domain-containing protein 2 (Q9HC29 whole entry, the tested form may be a part): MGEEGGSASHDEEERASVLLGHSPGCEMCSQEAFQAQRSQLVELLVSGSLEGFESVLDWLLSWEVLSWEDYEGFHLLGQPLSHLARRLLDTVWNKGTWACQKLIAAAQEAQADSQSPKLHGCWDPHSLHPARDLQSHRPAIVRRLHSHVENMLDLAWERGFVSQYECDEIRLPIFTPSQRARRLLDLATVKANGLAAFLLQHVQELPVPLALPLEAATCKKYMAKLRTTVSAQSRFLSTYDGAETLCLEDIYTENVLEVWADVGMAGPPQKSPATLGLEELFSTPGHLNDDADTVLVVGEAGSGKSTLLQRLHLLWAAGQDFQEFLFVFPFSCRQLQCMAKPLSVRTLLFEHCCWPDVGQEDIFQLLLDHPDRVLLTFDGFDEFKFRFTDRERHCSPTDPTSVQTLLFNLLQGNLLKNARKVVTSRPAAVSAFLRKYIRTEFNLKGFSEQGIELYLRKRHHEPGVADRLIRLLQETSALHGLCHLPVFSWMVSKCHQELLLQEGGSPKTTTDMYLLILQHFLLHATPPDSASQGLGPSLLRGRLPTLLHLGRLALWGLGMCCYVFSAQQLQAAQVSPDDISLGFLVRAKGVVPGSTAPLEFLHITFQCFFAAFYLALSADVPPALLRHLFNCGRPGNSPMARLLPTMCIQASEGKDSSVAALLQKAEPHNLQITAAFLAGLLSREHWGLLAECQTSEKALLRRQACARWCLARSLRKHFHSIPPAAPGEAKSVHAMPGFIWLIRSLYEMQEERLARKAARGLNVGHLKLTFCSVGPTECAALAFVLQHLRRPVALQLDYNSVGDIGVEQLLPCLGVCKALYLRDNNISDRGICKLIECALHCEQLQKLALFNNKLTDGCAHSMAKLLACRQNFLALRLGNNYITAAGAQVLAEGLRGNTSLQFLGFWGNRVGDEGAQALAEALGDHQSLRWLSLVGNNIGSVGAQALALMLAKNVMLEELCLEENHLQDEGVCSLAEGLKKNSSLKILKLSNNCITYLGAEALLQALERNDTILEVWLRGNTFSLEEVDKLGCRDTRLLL

[3] = molecular target: Toll-like receptor 4 (Homo sapiens) (UniProt O00206); assay: Inhibition of human TLR4 at 1 uM relative to control
Chain of Toll-like receptor 4 (Homo sapiens) (O00206 whole entry): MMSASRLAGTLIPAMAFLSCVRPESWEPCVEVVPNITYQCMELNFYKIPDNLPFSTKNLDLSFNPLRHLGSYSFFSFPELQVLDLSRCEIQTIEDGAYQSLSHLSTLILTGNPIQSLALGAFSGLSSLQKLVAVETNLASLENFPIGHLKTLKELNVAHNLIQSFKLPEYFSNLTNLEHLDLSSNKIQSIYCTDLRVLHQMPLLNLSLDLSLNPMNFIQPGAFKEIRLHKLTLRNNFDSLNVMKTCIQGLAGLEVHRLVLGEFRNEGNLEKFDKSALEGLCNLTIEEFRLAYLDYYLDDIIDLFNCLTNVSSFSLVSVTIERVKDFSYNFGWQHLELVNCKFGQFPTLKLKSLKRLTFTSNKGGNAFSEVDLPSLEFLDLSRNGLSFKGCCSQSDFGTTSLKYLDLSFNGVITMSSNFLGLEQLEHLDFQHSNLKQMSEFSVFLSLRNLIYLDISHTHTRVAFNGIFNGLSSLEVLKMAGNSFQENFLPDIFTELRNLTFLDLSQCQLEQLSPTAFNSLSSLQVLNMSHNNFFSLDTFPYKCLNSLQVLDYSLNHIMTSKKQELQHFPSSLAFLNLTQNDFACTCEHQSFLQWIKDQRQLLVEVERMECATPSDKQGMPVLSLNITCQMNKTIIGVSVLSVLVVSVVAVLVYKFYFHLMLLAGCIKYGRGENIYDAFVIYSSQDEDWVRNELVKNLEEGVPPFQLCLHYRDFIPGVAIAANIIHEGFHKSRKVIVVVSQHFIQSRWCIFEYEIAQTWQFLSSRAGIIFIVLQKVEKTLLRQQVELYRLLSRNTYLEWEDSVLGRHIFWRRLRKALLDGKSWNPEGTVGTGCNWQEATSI

[4] = molecular target: Toll-like receptor 2 (Homo sapiens) (UniProt O60603); assay: Inhibition of human TLR2 at 1 uM relative to control
Chain of Toll-like receptor 2 (Homo sapiens) (O60603 whole entry): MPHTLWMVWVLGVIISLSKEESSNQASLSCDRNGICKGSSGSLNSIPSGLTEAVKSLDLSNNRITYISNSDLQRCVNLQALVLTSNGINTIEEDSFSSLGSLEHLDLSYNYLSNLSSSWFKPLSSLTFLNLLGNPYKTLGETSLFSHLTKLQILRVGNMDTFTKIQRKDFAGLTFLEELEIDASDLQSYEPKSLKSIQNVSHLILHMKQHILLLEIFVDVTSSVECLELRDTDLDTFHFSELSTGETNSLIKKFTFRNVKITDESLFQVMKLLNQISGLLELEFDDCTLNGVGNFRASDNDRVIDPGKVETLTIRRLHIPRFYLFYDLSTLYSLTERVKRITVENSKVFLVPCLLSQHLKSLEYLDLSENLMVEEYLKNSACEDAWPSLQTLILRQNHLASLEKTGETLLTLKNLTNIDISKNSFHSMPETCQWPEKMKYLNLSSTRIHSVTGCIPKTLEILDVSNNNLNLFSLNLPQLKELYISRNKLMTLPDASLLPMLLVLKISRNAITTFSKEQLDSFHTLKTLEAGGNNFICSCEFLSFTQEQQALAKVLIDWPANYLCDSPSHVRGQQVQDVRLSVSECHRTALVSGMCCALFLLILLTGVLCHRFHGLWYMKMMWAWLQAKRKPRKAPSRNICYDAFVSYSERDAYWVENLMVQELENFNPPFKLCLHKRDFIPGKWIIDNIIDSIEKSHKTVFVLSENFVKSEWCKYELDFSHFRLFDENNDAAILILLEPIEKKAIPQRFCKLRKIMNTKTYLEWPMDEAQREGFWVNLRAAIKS

[5] = molecular target: T1, Toll-like receptor 9 (Homo sapiens) (UniProt Q9NR96); assay: Inhibition of human TLR9 at 1 uM relative to control
T1 sequence (whole entry): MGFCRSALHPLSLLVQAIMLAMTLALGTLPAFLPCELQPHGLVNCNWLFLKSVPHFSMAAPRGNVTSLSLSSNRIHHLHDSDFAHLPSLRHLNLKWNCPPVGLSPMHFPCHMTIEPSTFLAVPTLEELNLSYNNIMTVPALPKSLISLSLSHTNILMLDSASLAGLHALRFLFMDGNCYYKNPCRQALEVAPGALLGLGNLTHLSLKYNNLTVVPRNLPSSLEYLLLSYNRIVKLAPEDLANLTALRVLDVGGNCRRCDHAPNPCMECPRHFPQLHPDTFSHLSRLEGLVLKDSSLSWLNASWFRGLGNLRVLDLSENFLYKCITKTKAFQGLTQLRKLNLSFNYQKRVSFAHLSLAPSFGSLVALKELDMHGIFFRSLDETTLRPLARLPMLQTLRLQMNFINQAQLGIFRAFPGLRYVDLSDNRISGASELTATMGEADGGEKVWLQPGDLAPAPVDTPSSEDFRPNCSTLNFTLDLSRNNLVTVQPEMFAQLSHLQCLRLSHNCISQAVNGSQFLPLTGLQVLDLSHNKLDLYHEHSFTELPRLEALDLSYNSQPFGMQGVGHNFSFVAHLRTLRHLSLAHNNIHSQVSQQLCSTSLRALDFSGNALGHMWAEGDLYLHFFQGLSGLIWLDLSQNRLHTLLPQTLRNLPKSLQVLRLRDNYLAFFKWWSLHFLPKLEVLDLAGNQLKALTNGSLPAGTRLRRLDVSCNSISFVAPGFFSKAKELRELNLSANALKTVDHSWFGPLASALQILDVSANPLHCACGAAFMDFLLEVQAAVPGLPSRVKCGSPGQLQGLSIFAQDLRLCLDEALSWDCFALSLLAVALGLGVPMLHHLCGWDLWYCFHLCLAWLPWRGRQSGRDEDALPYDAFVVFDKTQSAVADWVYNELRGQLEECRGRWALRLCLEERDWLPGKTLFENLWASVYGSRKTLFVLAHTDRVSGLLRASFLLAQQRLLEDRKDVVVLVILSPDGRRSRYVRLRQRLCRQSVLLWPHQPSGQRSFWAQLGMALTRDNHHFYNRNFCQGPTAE

[6] = molecular target: T2, Nucleotide-binding oligomerization domain-containing protein 1 (Mus musculus, UniProt Q8BHB0); assay: Antagonist activity at mouse NOD1 expressed in HEK-Blue cells assessed as decrease in SEAP secretion incubated for 3 hrs followed by C12-iE-DAP stimulation for 20 hrs by spectrophotometry; assay type: cell-based, HEK-Blue mNOD1
T2 sequence (Q8BHB0 whole entry): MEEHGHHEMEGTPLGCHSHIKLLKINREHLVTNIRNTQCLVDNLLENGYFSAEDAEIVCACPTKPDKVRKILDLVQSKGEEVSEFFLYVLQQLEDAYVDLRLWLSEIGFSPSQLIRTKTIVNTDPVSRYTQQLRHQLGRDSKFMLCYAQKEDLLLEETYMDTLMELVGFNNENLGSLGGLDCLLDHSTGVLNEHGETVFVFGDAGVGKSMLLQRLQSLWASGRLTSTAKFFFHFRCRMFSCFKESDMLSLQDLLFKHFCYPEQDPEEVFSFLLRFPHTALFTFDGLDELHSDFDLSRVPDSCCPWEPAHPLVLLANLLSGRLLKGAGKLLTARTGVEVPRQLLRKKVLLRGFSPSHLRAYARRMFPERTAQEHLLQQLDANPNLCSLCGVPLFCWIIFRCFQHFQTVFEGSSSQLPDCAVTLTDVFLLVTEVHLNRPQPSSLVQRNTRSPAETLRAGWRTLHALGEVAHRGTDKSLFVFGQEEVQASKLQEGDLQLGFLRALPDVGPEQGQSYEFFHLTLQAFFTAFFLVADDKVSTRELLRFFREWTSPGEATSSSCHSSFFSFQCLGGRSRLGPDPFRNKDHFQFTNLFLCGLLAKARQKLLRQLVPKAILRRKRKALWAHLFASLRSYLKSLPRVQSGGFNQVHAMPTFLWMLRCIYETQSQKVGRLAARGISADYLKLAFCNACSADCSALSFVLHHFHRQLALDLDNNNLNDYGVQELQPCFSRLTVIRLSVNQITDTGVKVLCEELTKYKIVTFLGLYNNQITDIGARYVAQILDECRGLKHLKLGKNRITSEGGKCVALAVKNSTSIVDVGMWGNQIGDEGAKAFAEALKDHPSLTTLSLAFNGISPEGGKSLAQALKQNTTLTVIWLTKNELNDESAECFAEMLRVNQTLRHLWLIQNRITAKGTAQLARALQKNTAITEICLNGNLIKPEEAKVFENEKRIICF

[7] = Solubility of compound in phosphate buffer at pH 7.2 to 7.4; assay type: physicochemical
[8] = molecular target: T3, Nucleotide-binding oligomerization domain-containing protein 1 (Mus musculus) (UniProt Q8BHB0); assay: Antagonist activity at mouse NOD1 expressed in HEK-Blue cells assessed as decrease in SEAP secretion at 1 uM incubated for 3 hrs followed by C12-iE-DAP stimulation for 20 hrs by spectrophotometry relative to control; assay type: cell-based; conditions: HEK-Blue mNOD1, filed as antagonist, time 23.0 hrs
T3 sequence (whole entry): T2 sequence (Q8BHB0 whole entry)

[9] = molecular target: Receptor-interacting serine/threonine-protein kinase 2 (Homo sapiens) (UniProt O43353); assay: Inhibition of RIP2 (unknown origin) at 10 uM relative to control
Chain of Receptor-interacting serine/threonine-protein kinase 2 (Homo sapiens) (O43353 whole entry): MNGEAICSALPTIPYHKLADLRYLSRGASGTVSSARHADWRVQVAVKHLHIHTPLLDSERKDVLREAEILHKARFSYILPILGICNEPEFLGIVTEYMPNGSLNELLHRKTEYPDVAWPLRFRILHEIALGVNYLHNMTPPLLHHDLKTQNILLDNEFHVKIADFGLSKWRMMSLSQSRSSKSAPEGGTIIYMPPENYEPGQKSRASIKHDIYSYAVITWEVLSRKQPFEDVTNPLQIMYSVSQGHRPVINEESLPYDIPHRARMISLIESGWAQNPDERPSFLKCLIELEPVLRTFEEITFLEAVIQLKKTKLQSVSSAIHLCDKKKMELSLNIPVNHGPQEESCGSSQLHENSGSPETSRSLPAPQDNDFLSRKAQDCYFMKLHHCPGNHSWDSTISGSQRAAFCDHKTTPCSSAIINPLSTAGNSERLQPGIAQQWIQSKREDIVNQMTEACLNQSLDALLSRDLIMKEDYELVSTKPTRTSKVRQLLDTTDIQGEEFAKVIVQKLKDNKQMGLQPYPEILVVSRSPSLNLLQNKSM

| half-life at 1.25 µM [1] | inhibition [2] | inhibition [3] | inhibition [4] | inhibition [5] | IC50 [6] | solubility [7] | inhibition [8] | inhibition [9] | Structure (SMILES) |
| --- | --- | --- | --- | --- | --- | --- | --- | --- | --- |
| 26.5 min | < 10% | < 10% | 8.5% | 37.6% | 0.054 µM | 48.8 µg/mL (≈ 96.2 µM) | 73.6% | < 10% | N#Cc1ccc2nc(Cl)n(-c3ccc(Cl)c(NS(=O)(=O)c4c(F)cccc4F)c3)c(=O)c2c1 |
| 22.8 min | 16.1% | 15.8% | 52.3% | 73.9% | 0.058 µM | 21.5 µg/mL (≈ 37 µM) | 87.2% | 10.5% | CS(=O)(=O)c1ccc2nc(Cl)n(-c3ccc(Cl)c(NS(=O)(=O)c4ccc5ncsc5c4)c3)c(=O)c2c1 |
| 30.1 min | 36.9% | 10% | 12.8% | 37.1% | 0.032 µM | 44.6 µg/mL (≈ 79.6 µM) | 80.8% | 11.4% | CS(=O)(=O)c1ccc2nc(Cl)n(-c3ccc(Cl)c(NS(=O)(=O)c4c(F)cccc4F)c3)c(=O)c2c1 |
